Laboratory results as given in patent US20200338045A1, “ISOINDOLINE COMPOSITIONS AND METHODS FOR TREATING NEURODEGENERATIVE DISEASE” (priority 2017, published 2020).

Test system: CSF proteins
Assay: LC/MSMS protein expression in CSF (COG0102)
Assay type: in vivo, human
Experimental: Plasma and CSF protein expression were measured by LC/MSMS in samples drawn prior to dosing (Day 0) and at end of dosing (Day 28) and were compared within each patient and between dosing groups.
This trial (ClinicalTrials.gov NCT02907567) was a randomized, double-blind, placebo-controlled clinical trial in mild to moderate Alzheimer's patients (MMSE 18-26) (See FIG. 1 for clinical trial design). The trial was conducted at six sites in Australia. Patients were randomized into placebo (n=5) or CT1812-treated groups: 90 mg (n=4), 280 mg (n=5) or 560 mg (n=5) and treated once daily for 28 days. Clinical chemistry was done at Sydpath (Sydney, AU). Pharmacokinetics were done at CPR Pharma Services (Adelaide, AU). Cerebrospinal fluid samples were taken at screening and day 21-28 of treatment and aliquoted. Plasma samples were taken at screening or Day 1 (one sample) and day 14-28, then spun down to separate plasma and aliquoted. One set of CSF samples was analyzed for Alzheimer's disease biomarkers; protein measurements (Aβ42, A1340, total tau, tau phosphorylated at threonine 181 (phosphorylated tau), NFL and neurogranin) were performed using commercially available ELISA assays from Fujirebio according to the manufacturer's instructions (INNOTEST β-AMYLOID(1-42), INNOTEST β-AMYLOID(1-40), INNOTEST hTau Ag, INNOTEST PHOSPHO-TAU(181P), Uman Diagnostics NFL assay). Neurogranin was measured with a sandwich ELISA method using antibodies Ng2 and Ng22 developed at the University of Gotteborg (Kvartsberg et al. 2015). Identical aliquots of CSF, and plasma were analyzed for protein expression changes via LC/MSMS at Caprion (see below).
Matched screening and day 28 plasma and CSF samples were analyzed by LC/MSMS at Caprion Biosciences Inc. Plasma was depleted of high and medium abundance proteins using a commercial immunoaffinity column, IgY14-Supermix (Sigma). CSF was depleted of only 14 high abundance proteins using MARS-14 (Agilent). All samples were digested with trypsin and plasma samples were fractionated by strong cation exchange chromatography (3 fractions). Both CSF and plasma samples were analyzed using a NanoAcquity UPLC coupled to a Q Exactive MS. […] The 12 most intense peaks per survey scan with charge states 2-8 fragmented and scanned with a mass range from 200 to 2000 m/z at a resolution of 17,500. Raw spectrometer data files for each LC-MS run were aligned independently using Elucidator software (Rosetta Biosoftware). The MS/MS spectra were matched to corresponding peptide sequences found in the Uniprot Human protein database (January 2017) using Mascot software, allowing for up to 2 missed cleavages, a peptide tolerance of 20 ppm, and an MS/MS tolerance of 0.05 Da. Outlier detection was performed by determining the average log-intensity of all isotope groups (IG) over injection order for all samples. Samples with an average value greater than 2 standard deviations from the mean were flagged for investigation. Following data transformation and normalization, expression analysis of the identified isotope groups was performed and the statistical significance of each comparison was assessed with a parametric, linear mixed model (LMM) and a non-parametric Wilcoxon ranked test (ranked p-values). Expression analysis was also performed at the peptide and protein levels, which used the same methodology as above, but applied to peptide/protein intensities, derived by rolling-up the corresponding isotope group intensities. Isotope groups not detected in at least half of the samples in either of the two groups being compared were not used for the roll-up.
Table 5 lists 30 proteins that were detected with at least 20% change in placebo vs. treated 28 days vs screening. The following values are reported for each statistical analysis performed: FC: Fold change calculated from the protein normalized intensity. FC>10 or <0.1 are unusually large and may be artifacts. […]

[1] = 28 days vs screening, fold change

CC(C)(C)Oc1cc(CCC(C)(C)N2Cc3ccc(S(C)(=O)=O)cc3C2)ccc1O [CT1812]
Afamin, % change treated vs placebo: −19% | B3GNT9, % change treated vs placebo: 65% | CD14, % change treated vs placebo: 20% | Contactin 1, % change treated vs placebo: −23% | EphA4, % change treated vs placebo: −7% | FLNA, % change treated vs placebo: −51% | PDIA1, % change treated vs placebo: 21% | PDIA6, % change treated vs placebo: 44% | ROBO4, % change treated vs placebo: 62% | SERPINA4, % change treated vs placebo: −26% | Synaptotagmin, % change treated vs placebo: −59% | Tenascin C, % change treated vs placebo: −10% | Synaptotagmin-1 expression decreased, CT1812-treated vs. placebo (28 days): 63% | AFM, FC (Treated) [1]: 0.94 | ANGPTL2, FC (Treated) [1]: 0.80 | CAMK2D, FC (Treated) [1]: 1.04 | CD14, FC (Treated) [1]: 1.18 | CNTN1, FC (Treated) [1]: 0.97 | EFNB1, FC (Treated) [1]: 0.97 | EPHA4, FC (Treated) [1]: 0.94 | FGFR3, FC (Treated) [1]: 1.12 | GMFB, FC (Treated) [1]: 1.04 | GNPTG, FC (Treated) [1]: 1.18 | HLA-H, FC (Treated) [1]: 1.22 | ICAM2, FC (Treated) [1]: 1.11 | LILRB4, FC (Treated) [1]: 1.11 | MBL2, FC (Treated) [1]: 0.75 | MDGA2, FC (Treated) [1]: 1.01 | NPPC, FC (Treated) [1]: 0.90 | P4HB, FC (Treated) [1]: 1.10 | PDGFA, FC (Treated) [1]: 1.15 | PDIA6, FC (Treated) [1]: 1.15 | RBP4, FC (Treated) [1]: 0.82 | ROBO1, FC (Treated) [1]: 0.96 | ROBO4, FC (Treated) [1]: 1.22 | SAA4, FC (Treated) [1]: 1.17 | SEMA3F, FC (Treated) [1]: 1.40 | SERPINA4, FC (Treated) [1]: 0.88 | SMPDL3B, FC (Treated) [1]: 0.97 | SYT1, FC (Treated) [1]: 0.78 | TNC, FC (Treated) [1]: 1.04 | TPI1, FC (Treated) [1]: 0.90 | YWHAB, FC (Treated) [1]: 0.90 | AFM, FC (Treated vs. Placebo) (28 days, fold change): 0.84 | ANGPTL2, FC (Treated vs. Placebo) (28 days, fold change): 0.69 | CAMK2D, FC (Treated vs. Placebo) (28 days, fold change): 1.22 | CD14, FC (Treated vs. Placebo) (28 days, fold change): 1.20 | CNTN1, FC (Treated vs. Placebo) (28 days, fold change): 0.81 | EFNB1, FC (Treated vs. Placebo) (28 days, fold change): 0.93 | EPHA4, FC (Treated vs. Placebo) (28 days, fold change): 0.93 | FGFR3, FC (Treated vs. Placebo) (28 days, fold change): 1.83 | GMFB, FC (Treated vs. Placebo) (28 days, fold change): 1.41 | GNPTG, FC (Treated vs. Placebo) (28 days, fold change): 1.26 | HLA-H, FC (Treated vs. Placebo) (28 days, fold change): 1.37 | ICAM2, FC (Treated vs. Placebo) (28 days, fold change): 1.23 | LILRB4, FC (Treated vs. Placebo) (28 days, fold change): 1.25 | MDGA2, FC (Treated vs. Placebo) (28 days, fold change): 0.71 | NPPC, FC (Treated vs. Placebo) (28 days, fold change): 0.91 | P4HB, FC (Treated vs. Placebo) (28 days, fold change): 1.21 | PDGFA, FC (Treated vs. Placebo) (28 days, fold change): 1.27 | PDIA6, FC (Treated vs. Placebo) (28 days, fold change): 1.44 | RBP4, FC (Treated vs. Placebo) (28 days, fold change): 0.81 | ROBO1, FC (Treated vs. Placebo) (28 days, fold change): 0.82 | ROBO4, FC (Treated vs. Placebo) (28 days, fold change): 1.62 | SAA4, FC (Treated vs. Placebo) (28 days, fold change): 1.35 | SEMA3F, FC (Treated vs. Placebo) (28 days, fold change): 1.58 | SERPINA4, FC (Treated vs. Placebo) (28 days, fold change): 0.79 | SMPDL3B, FC (Treated vs. Placebo) (28 days, fold change): 1.24 | SYT1, FC (Treated vs. Placebo) (28 days, fold change): 0.63 | TNC, FC (Treated vs. Placebo) (28 days, fold change): 0.91 | TPI1, FC (Treated vs. Placebo) (28 days, fold change): 0.87 | YWHAB, FC (Treated vs. Placebo) (28 days, fold change): 0.81 | MBL2, FC (Treated vs. Placebo) (28 days, fold change, FC>10 may be artifacts): >10 | Afamin, With CT1812 (direction of change): significantly decreased and ↓* | B3GNT9, With CT1812 (direction of change): dose dependently increased and ↑ | CD14, With CT1812 (direction of change): significantly increased and ↑* | Contactin 1, With CT1812 (direction of change): significantly reduced and ↓* | EphA4, With CT1812 (direction of change): ↓* | FLNA, With CT1812 (direction of change): trend for reduction and ↓ | PDIA1, With CT1812 (direction of change): significantly increased and ↑* | PDIA6, With CT1812 (direction of change): significantly increased and ↑* | ROBO4, With CT1812 (direction of change): ↑* | SERPINA4, With CT1812 (direction of change): significantly reduced and ↓* | Synaptotagmin, With CT1812 (direction of change): significantly decreased and reduction and decreased and ↓* | Tenascin C, With CT1812 (direction of change): ↓* | Afamin, % change baseline treated (treated group vs baseline): −7% | B3GNT9, % change baseline treated (treated group vs baseline): 55% | CD14, % change baseline treated (treated group vs baseline): 18% | Contactin 1, % change baseline treated (treated group vs baseline): −3% | EphA4, % change baseline treated (treated group vs baseline): −6% | FLNA, % change baseline treated (treated group vs baseline): −26% | PDIA1, % change baseline treated (treated group vs baseline): 10% | PDIA6, % change baseline treated (treated group vs baseline): 15% | ROBO4, % change baseline treated (treated group vs baseline): 22% | SERPINA4, % change baseline treated (treated group vs baseline): −13% | Synaptotagmin, % change baseline treated (treated group vs baseline): −28% | Tenascin C, % change baseline treated (treated group vs baseline): 4%
